These results are taken from paper PMC11728142, “A Tachyplesin Antimicrobial Peptide from Theraphosidae Spiders with Potent Antifungal Activity Against Cryptococcus neoformans” (Microorganisms, 2024).

Structures are written as SMILES. Positions of bridges follow the written chain, without caps; N, C: chain ends. Residues, ends and D or L forms follow the SMILES beside them.

The subject of data set [1] is C. neoformans BNCC225501 biofilms. As to the kind of experiment: Two-photon laser scanning microscopy of biofilms, FDA/PI. In kind it is cell-based, Cryptococcus neoformans. Conditions: 0.5× to 8 × the MIC, 24 h at 37 °C. As to the method:
Fluorescein diacetate (FDA) and Propidium iodide (PI) dyes were utilized to stain live and dead cells, respectively. The fungi were cultured in YPDA broth media at 37 °C to the mid-logarithmic phase. Fungal cells were centrifuged at 3500 rpm for 5 min and then washed thrice with normal saline (0.9% sodium chloride). The fungal suspension was diluted to 1 × 10^9 CFU/mL in YPDA broth media, and, then, 500 µL was added to wells in a 24-well plate. Incubation was performed for 24 h at 37 °C; then, wells were washed thrice with PBS. […] Normal saline was added to the negative control group. […] After incubation, the non-adherent cells were washed with PBS, 250 µL (10 µg/mL) of FDA dye (Solarbio, Beijing, China) was added to each well and left in the dark for 20 min, and, then, 250 µL (5 µg/mL) of PI dye (Solarbio, Beijing, China) was added and co-stained in the dark for 10 min. Microscopy observation was performed utilizing the TPLSM (A1MP+, Nikon, Tokyo, Japan) at 555 nm and 488 nm excitations for PI and FDA, respectively.

Data set [2] in a line: In vivo acute toxicity test. The following applies: mouse, in vivo, ip; mice, single intraperitoneal dose, observed up to 72 h. As to the method:
(§1) The peptide was administered in decreasing dosages to the different groups of mice. The concentration was lowered after three repeats if death was immediate, and 6 mice were injected if no death occurred. Following injection, mice were examined visually for any indications of toxicity, and the times at which mice died were recorded at 12/24/48/60 and 72 h. The following signs were used to assess toxicity: hunched back, ruffled fur, poor motility, and total immobility resulting in death.

The test system of a further data set is C57BL/6J male mice. The experiment in a line: In vivo acute toxicity test. How it is done:
as §1

Another data set deals with C. neoformans BNCC225501. The experiment in a line: Time-killing kinetics assay. Type of data set: cell-based, Cryptococcus neoformans. How it is done:
C. neoformans fungi grown to mid-log phase was adjusted with normal saline to 1 × 10^5 CFU/mL. […] A volume of 10 µL of the sample was taken at each time point and diluted with sterile normal saline to 100-fold. A total of 100 µL of the dilution was seeded on YPDA media agar plates in three replicates for each concentration per time point. Plates were incubated for 18–24 h at 37 °C, and the number of viable colonies was determined to assess the rate of fungi growth.

Data set [3] has as its system TNF-α, IL-6, IL-1β, MCP-1. As to the kind of experiment: Plasma cytokine levels of infected mice, ELISA. Conditions: QS18 1, 2, 4 mg/kg i.p., n = 4. In kind it is in vivo, C57BL/6J female mice. How it is done: Mice systemic infection and the treatment model were performed to assess the dissemination of fungi to target organs as described by with little modifications. C57BL/6J female mice 20 ± 2 g were immunocompromised through the intraperitoneal injection of 150 mg/kg cyclophosphamide for four days prior to infection. C. neoformans was then cultured in YPDA broth media to mid-log phase. […] Fungal pellets were resuspended in the same buffer, and the optical density (OD) value was adjusted to 4 × 10^7 CFU/mL. A volume of 200 µL of the fungal solution was i.p. injected into immunocompromised mice (n = 4), a total of 8 × 10^6 colony-forming units (CFUs) injected per mouse. Twelve hours post-intraperitoneal inoculation of the fungi, treatment was administered. […] Twelve hours post-treatment, the mice were sacrificed, and blood was collected through retro-orbital bleeding. Organs (lung, liver, kidney, and spleen) were also harvested and divided into two parts. […]
Blood collected through retro-orbital bleeding was centrifuged for 25 min at 5000 rpm to isolate plasma. Following the manufacturer’s guidelines, standard enzyme-linked immunosorbent assay (ELISA) kits were used to quantify the cytokine levels of tumor necrosis factor-α (TNF-α), interleukin-6 (IL-6), interleukin--1β (IL-1β), and monocyte chemoattractant protein-1 (MCP-1) in the plasma.

In data set [4] the test system is C. neoformans. The experiment in a line: Mice systemic infection model, fungal burden. In kind it is in vivo, C57BL/6J female mice. The following applies: immunocompromised mice, 8 × 10^6 CFU/mouse i.p., QS18 1, 2, 4 mg/kg i.p. 12 h after infection, read 12 h post-treatment, n = 4. How it is done: Mice systemic infection and the treatment model were performed to assess the dissemination of fungi to target organs as described by with little modifications. C57BL/6J female mice 20 ± 2 g were immunocompromised through the intraperitoneal injection of 150 mg/kg cyclophosphamide for four days prior to infection. C. neoformans was then cultured in YPDA broth media to mid-log phase. […] Fungal pellets were resuspended in the same buffer, and the optical density (OD) value was adjusted to 4 × 10^7 CFU/mL. A volume of 200 µL of the fungal solution was i.p. injected into immunocompromised mice (n = 4), a total of 8 × 10^6 colony-forming units (CFUs) injected per mouse. Twelve hours post-intraperitoneal inoculation of the fungi, treatment was administered. […] Twelve hours post-treatment, the mice were sacrificed, and blood was collected through retro-orbital bleeding. Organs (lung, liver, kidney, and spleen) were also harvested and divided into two parts. One portion was weighed and placed into a grinding tube with 1 mL of normal saline and then homogenized in a tissue grinder to assess the fungal burden, while fixation of the other portion was performed for the histopathology examination. Following a 5-fold serial dilution in normal saline, 100 µL of the homogenates were seeded on YPDA plates and incubated at 37 °C for 48 h before counting colonies.

For data set [5], the system named is C. neoformans BNCC225501 biofilm. The experiment in a line: Biofilm eradication assay, crystal violet. In kind it is cell-based, Cryptococcus neoformans. How it is done: Evaluation of the peptide’s ability to eradicate C. neoformans BNCC225501 biofilms was performed by culturing and harvesting the fungal cells as described in the biofilm inhibition assay above. Incubation of the fungal solution (1 × 10^6 CFU/mL in YPDA media) was conducted in 96-well plates for 48 h at 37 °C. […] Excess stain was washed off with PBS, and 95% ethanol (100 µL) was added. Using a microplate reader, absorbance was determined at 600 nm for quantification of the percentage of biofilm eradication.

For data set [6], the system named is C. neoformans. As to the kind of experiment: Scanning and transmission electron microscopy. Type of data set: cell-based, Cryptococcus neoformans. Conditions: 10× the MIC; 14 µM, 2 h at 37 °C. As to the method:
C. neoformans were cultured in YPDA broth to mid-log phase and diluted with normal saline (0.9% sodium chloride) to 1 × 10^9 CFU/mL. The cultures were centrifuged at 3500 rpm for 5 min, and the supernatant was discarded. After three washes with normal saline, the fungal pellets were re-suspended in normal saline. […] At 2 h post-incubation, the suspensions were centrifuged at 3500 rpm for 5 min, the supernatant was aspirated, and the pellets were re-suspended/fixed in 1 mL of 2.5% glutaraldehyde. Fixation was performed overnight at 4 °C. Next, the samples were washed in normal saline and dehydrated in a graded series of ethanol (50%, 70%, 90%, and 100%). In the end, the pellets were placed on aluminum stubs, vacuum sputter-coated in gold, and the Hitachi S-3000N (Tokyo, Japan) SEM was used to examine the membrane morphology.
For transmission electron microscopy, the cells were cultured and harvested as described above. After dehydration, cells were embedded and stained for observation under transmission electron microscopy.

Turning to `CC(C)[C@@H]1NC(=O)[C@H](CCCCN)NC(=O)[C@H](Cc2ccccc2)NC(=O)[C@@H](NC(=O)[C@@H](N)CCC(N)=O)CSSC[C@@H](C(=O)N[C@@H](CO)C(=O)N[C@@H](CCCNC(=N)N)C(=O)N[C@@H](CO)C(N)=O)NC(=O)[C@H](CCCCN)NC(=O)[C@H]([C@@H](C)O)NC(=O)[C@H](Cc2ccccc2)NC(=O)[C@@H]2CSSC[C@H](NC1=O)C(=O)N[C@@H](Cc1ccccc1)C(=O)N[C@@H](CCCNC(=N)N)C(=O)N[C@@H](CCCCN)C(=O)N[C@@H](CCCNC(=N)N)C(=O)N2` [QS18] (H-QCFKVCFRKRCFTKCSRS-NH2; disulfide 2-15, 6-11; N-terminus and C-terminus assumed), the “viability of biofilm cells, PI/FDA fluorescence” value in data set [1] was “decreased dose-dependently”. Moreover, the median lethal dose (LD50) at 72 h in data set [2] was 30 mg/kg. Besides, in the data set on C57BL/6J male mice, the “LD50 i.p. compared to intravenous administration” value is recorded as “two-fold”. The acute toxicity observation entry in the data set with C57BL/6J male mice (intravenous, 10 mg/kg, over 72 hours) is recorded as “no signs of toxicity or death”. In addition, the intravenous toxicity entry with C57BL/6J male mice (intravenous, 20 mg/kg and 40 mg/kg) is on record as “lethal effect”. In addition, the “time to no fungal growth” value with C. neoformans BNCC225501 (5× the MIC, 1 × 10^5 CFU/mL, 37 °C, colony count) is given as 120 min. For the same molecule, in the data set on C. neoformans BNCC225501 (C. neoformans BNCC 225501, as worded in the discussion), the “time to kill fungi” value is “within an hour”. Besides, the “plasma IL-1β, IL-6, TNF-α and MCP-1” value in data set [3] was “dose-dependent reductions in these inflammatory markers”. Moreover, the “fungal burden (CFU) in lung, liver, kidney, spleen and blood” value in the data set with C. neoformans [4] was “significant suppression of fungi dissemination to target organs”. Also, in data set [5] (1 × MIC, 48 h preformed biofilm, crystal violet OD600), the “eradication of preformed biofilms” value is recorded as “up to 65%”. Moreover, the eradication of biofilms entry in data set [5] (sub-MIC levels) was “over 50%”. Besides, the “cell morphology by SEM and TEM” value in the data set on C. neoformans [6] was “leaked cytoplasmic contents, as well as irregular cell morphology with shrunken cell surfaces”.
